From ChEMBL document CHEMBL1201862, “PubChem BioAssay data set” (2004)
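Dose response: 5 concentrations. Exposure: 48 h. Format: 96-well plates. Endpoint: linear interpolation; highest concentration if not reached. GI50 = concentration required for 50% inhibition of growth.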 The source made the active and inactive calls. No stated cut-off is given here; in the data, active = GI50 up to about 1.1 µM and inactive = higher. Where a SMILES comes first, the peptide text is derived from it. [ ]: non-standard residue; d: D form. The star is where a group is joined. ξ: configuration not given here. X4 = COc1ccc(C(N*)c2ccc(OC)cc2)cc1; NMeF = CN[C@@H](Cc1ccccc1)C(=O)O; NMeD = CN[C@@H](CC(=O)O)C(=O)O; NMeV = CN[C@H](C(=O)O)C(C)C; ξNMeV = CNC(C(=O)O)C(C)C; Boc = CC(C)(C)OC(=O)*; ξNMeA = CNC(C)C(=O)O; ξV = CC(C)C(N)C(=O)O

Key:
Assay in all cases: NCI anticancer screen, dose series, 48 h
HOP-62 = system: HOP-62
MDA-MB-231 = system: MDA-MB-231
RXF 393 = system: RXF 393
SN12C = system: SN12C
NCI-H23 = system: NCI-H23
NCI-H522 = system: NCI-H522
COLO 205 = system: COLO 205
KM12 = system: KM12
UACC-257 = system: UACC-257
U-251 = system: U-251
SF-268 = system: SF-268
CCRF-CEM = system: CCRF-CEM
TK-10 = system: TK-10
HCT-15 = system: HCT-15
OVCAR-4 = system: OVCAR-4
A498 = system: A498
HCT-116 = system: HCT-116
ACHN = system: ACHN
A549 = system: A549
SK-OV-3 = system: SK-OV-3

SMILES | GI50 (HOP-62) | GI50 (MDA-MB-231) | GI50 (RXF 393) | GI50 (SN12C) | GI50 (NCI-H23) | GI50 (NCI-H522) | GI50 (COLO 205) | GI50 (KM12) | GI50 (UACC-257) | GI50 (U-251) | GI50 (SF-268) | GI50 (CCRF-CEM) | GI50 (TK-10) | GI50 (HCT-15) [µM] | GI50 (OVCAR-4) | GI50 (A498) | GI50 (HCT-116) | GI50 (ACHN) | GI50 (A549) | GI50 (SK-OV-3)
Fc1ccc(Nc2nnc(-c3ccccn3)s2)cc1 | > 100 µM (inactive) | > 100 µM (inactive) | > 100 µM (inactive) | > 100 µM (inactive) | > 100 µM (inactive) | > 100 µM (inactive) | > 100 µM (inactive) | > 100 µM (inactive) | > 100 µM (inactive) | > 100 µM (inactive) | > 100 µM (inactive) | > 100 µM (inactive) | > 100 µM (inactive) | > 100 | > 100 µM (inactive) | > 100 µM (inactive) | > 100 µM (inactive) | > 100 µM (inactive) | > 100 µM (inactive) | > 100 µM (inactive)
CCOP(=O)(OCC)C(C)(CC)N/C(=N\C1=NC(C(F)(F)F)(C(F)(F)F)N=C(C(F)(F)F)O1)NC(NC(C)=O)(C(F)(F)F)C(F)(F)F (stereo not given) | 36.1 µM (inactive) | 22.9 µM (inactive) | 32.6 µM (inactive) | 34.1 µM (inactive) | 18.2 µM (inactive) | 27 µM (inactive) | 16.1 µM (inactive) | 35 µM (inactive) | 31.8 µM (inactive) | 31 µM (inactive) | 52.2 µM (inactive) | 15.8 µM (inactive) | 46.9 µM (inactive) | 58.5 | 16.5 µM (inactive) | 38.9 µM (inactive) | 33.3 µM (inactive) | 28.8 µM (inactive) | 53.5 µM (inactive) | 27.4 µM (inactive)
Nc1nc(Cl)cc(NCC2(CO)CCCCC2)n1 | > 100 µM (inactive) | > 100 µM (inactive) | > 100 µM (inactive) | 81.1 µM (inactive) | 48.9 µM (inactive) | > 100 µM (inactive) | > 100 µM (inactive) | > 100 µM (inactive) | 64.7 µM (inactive) | > 100 µM (inactive) | > 100 µM (inactive) | > 100 µM (inactive) | > 100 µM (inactive) | > 100 | 80.7 µM (inactive) | 70.8 µM (inactive) | > 100 µM (inactive) | > 100 µM (inactive) | > 100 µM (inactive) | > 100 µM (inactive)
Oc1nc2nnc(COc3ccc(Cl)cc3Cl)n2nc1Cc1ccccc1 | 47.2 µM (inactive) | 43.2 µM (inactive) | 21.5 µM (inactive) | 57.1 µM (inactive) | 43 µM (inactive) | > 100 µM (inactive) | > 100 µM (inactive) | > 100 µM (inactive) | > 100 µM (inactive) | 23.8 µM (inactive) | 63.4 µM (inactive) | 33 µM (inactive) | 34.6 µM (inactive) | > 100 | 47.8 µM (inactive) | 31.3 µM (inactive) | 52.5 µM (inactive) | 41.8 µM (inactive) | 94.2 µM (inactive) | 27.4 µM (inactive)
CCOC(=O)/C(C(N)=O)=C(O)/C(O)=C(\Br)C(=O)c1ccccc1 | 20.5 µM (inactive) | 19.6 µM (inactive) | 15.6 µM (inactive) | 18.5 µM (inactive) | 18.8 µM (inactive) | 1.72 µM (inactive) | 17.3 µM (inactive) | 18.1 µM (inactive) | 17.9 µM (inactive) | 18.2 µM (inactive) | 19.5 µM (inactive) | 0.979 µM (active) | 19 µM (inactive) | 18.2 | 22 µM (inactive) | > 100 µM (inactive) | 16.4 µM (inactive) | 19.1 µM (inactive) | 20.4 µM (inactive) | 26.2 µM (inactive)
O=C(Cn1c(=O)oc2ccc(C(=O)c3ccc(F)cc3)cc21)c1ccc([N+](=O)[O-])cc1 | 54.5 µM (inactive) | 28.9 µM (inactive) | 27.3 µM (inactive) | 60.3 µM (inactive) | 45.6 µM (inactive) | 18.8 µM (inactive) | 26.9 µM (inactive) | 22.8 µM (inactive) | 60.3 µM (inactive) | 34.3 µM (inactive) | 45 µM (inactive) | 19.1 µM (inactive) | 36.6 µM (inactive) | 20.9 | 25.5 µM (inactive) | 25.5 µM (inactive) | 29.6 µM (inactive) | 35 µM (inactive) | 37.1 µM (inactive) | 69.8 µM (inactive)
O=C1NC(Cc2ccc(O)cc2)C(=O)NC1Cc1ccc(O)cc1 (stereo not given) | > 100 µM (inactive) | > 100 µM (inactive) | > 100 µM (inactive) | 27.1 µM (inactive) | > 100 µM (inactive) | > 100 µM (inactive) | > 100 µM (inactive) | > 100 µM (inactive) | > 100 µM (inactive) | > 100 µM (inactive) | > 100 µM (inactive) | > 100 µM (inactive) | > 100 µM (inactive) | > 100 | > 100 µM (inactive) | > 100 µM (inactive) | > 100 µM (inactive) | > 100 µM (inactive) | > 100 µM (inactive) | > 100 µM (inactive)
CC(N)(Cc1c[nH]c2ccccc12)C(=O)O (stereo not given) | > 100 µM (inactive) | > 100 µM (inactive) | > 100 µM (inactive) | > 100 µM (inactive) | > 100 µM (inactive) | > 100 µM (inactive) | > 100 µM (inactive) | > 100 µM (inactive) | > 100 µM (inactive) | > 100 µM (inactive) | > 100 µM (inactive) | > 100 µM (inactive) | > 100 µM (inactive) | > 100 | > 100 µM (inactive) | > 100 µM (inactive) | > 100 µM (inactive) | > 100 µM (inactive) | > 100 µM (inactive) | > 100 µM (inactive)
COc1ccc(C(NC(=O)C[C@@H](C(=O)N(C)C(C)C(=O)O)N(C)C(=O)[C@@H]2CCCN2C(=O)[C@H](C(C)C)N(C)C(=O)C(C(C)C)N(C)C(=O)[C@H](Cc2ccccc2)N(C)C(=O)C(NC(=O)OC(C)(C)C)C(C)C)c2ccc(OC)cc2)cc1 (stereo not given in full) (Boc-[ξV][NMeF][ξNMeV][NMeV]P[NMeD](X4)[ξNMeA]-OH) | 13.4 µM (inactive) | 11.3 µM (inactive) | 7.5 µM (inactive) | 25.5 µM (inactive) | 10.4 µM (inactive) | 11.5 µM (inactive) | 20.4 µM (inactive) | 7.18 µM (inactive) | 9.75 µM (inactive) | 9.75 µM (inactive) | 7.53 µM (inactive) | 7.43 µM (inactive) | 23.7 µM (inactive) | 21.9 | 17.5 µM (inactive) | > 37.5 µM (inactive) | 13.1 µM (inactive) | 36.9 µM (inactive) | > 37.5 µM (inactive) | > 37.5 µM (inactive)
